According to publication PMC9299640, “Incorporation of β‐Alanine in Cu(II) ATCUN Peptide Complexes Increases ROS Levels, DNA Cleavage and Antiproliferative Activity” (Chemistry (Weinheim an Der Bergstrasse, Germany), 2021):

Legend:
[1] = tested on: HCT116 (colorectal carcinoma); experiment: Antiproliferative activity, sulforhodamine B (SRB) assay; type: cell-based, human; conditions: after treatment with 70 μM, 72 h
Experimental: (§1) The antiproliferative activity of selected Cu(II) ATCUN complexes was investigated towards different tumor cell lines (HCT116, NCI-H460, SiHa and SW480 cells) and expressed as the IC50 values.
(§2) Table S13. Accumulation of Cu in HCT116 cells after 24 h incubation with Cu-GGH, 1, 3, 4 and CuCl2 (70 µM) as determined by ICP-MS (n = 3), and cytotoxic activity in human cancer cell lines HCT116, NCI-H460, SiHa and SW480 expressed as the IC50 ± SD (in µM) as well as by the residual viable cells after treatment with 70 μM of the respective compound (%) as determined by the SRB assay (exposure time 72 h). accumulated Cu IC50 values […]
(§3) a – indicates no antiproliferative activity observed after treatment with the respective compound at 70 μM for 72 h.
(§4) S-12.1 Determination of IC50 values against HCT116, NCI-H460, SiHa and SW480 […]
(§5) HCT116, SW480 and NCI-H460 cells were supplied by ATCC, while SiHa cells were supplied by Dr. David Cowan, of the Ontario Cancer Institute, Canada. The cells were grown in α-MEM (Life Technologies) supplemented with 5% fetal calf serum (Moregate Biotech) at 37 °C in a humidified incubator with 5% CO2. […]
(§6) in 96-well plates and left to settle for 24 h. Compounds were added as water solutions to the plates in a series of 3-fold dilutions for 72 h before the assay was terminated by addition of 10% trichloroacetic acid (Merck Millipore) at 4 °C for 1 h. Cells were stained […]
(§7) with 0.4% sulforhodamine B (Sigma-Aldrich) in 1% acetic acid for 30 min in the dark at room temperature and then washed with 1% acetic acid to remove unbound dye. The stain was dissolved in unbuffered Tris base (10 mM, Serva) for 30 min on a plate shaker in the dark and quantified on a BioTek EL808 microplate reader at an absorbance of 490 nm with a reference wavelength of 450 nm to determine the percentage of cell-growth inhibition by determining the absorbance of each sample relative to a negative (no inhibitor) and a no-growth control (day 0). IC50 values were calculated with SigmaPlot 12.5 (Systat Software Inc.) using a three-parameter logistic sigmoidal dose−response curve between the calculated growth inhibition and the compound concentration. The presented IC50 values are the mean of at least three independent experiments, where 10 concentrations were tested in duplicate for each compound.
(§8) Ventures), by diluting with a matrix-matched solution with regard to HNO3 and Tm concentration, producing calibration standards with concentrations of 0.5, 1, 3, 5, 7, 10, […]
(§9) The measured Cu concentrations in the cell accumulation samples were in the range of 27–82 μg/L. The reported values are the means of at least three independent accumulation experiments conducted in triplicates with blank wells for each substance to account for unspecific binding of the Cu(II) complexes to the plastic of the well plates.
(§10) Accumulation values have been corrected by subtracting the average amount Cu determined in the cell-free wells.
(§11) Calibration curves for Cu were prepared with concentrations ranging from 0.5–100 µg/L. The limit of detection (LOD) was defined as 3 times the random error in the y-direction (Sy/x) of the calibration curve divided by the slope of the calibration curve. The limit of quantification (LOQ) was defined as 10 times the random error in the y-direction (Sy/x) of the calibration curve divided by the slope of the calibration curve.42 The LOD was determined for Cu as 1.8 μg/L and the LOQ was 5.95 μg/L.

[2] = tested on: NCI-H460 (non-small cell lung carcinoma); experiment: as above; type: cell-based, human; conditions: after treatment with 70 μM, 72 h
Experimental: as §1, §2, §3, §4, §5, §6, §7, §8, §9, §10, §11

[3] = tested on: SW480 (colon adenocarcinoma); experiment: as above; type: cell-based, human; conditions: after treatment with 70 μM, 72 h
Experimental: as §1, §2, §3, §4, §5, §6, §7, §8, §9, §10, §11

[4] = tested on: SiHa (cervical carcinoma); experiment: as above; type: cell-based, human; conditions: after treatment with 70 μM, 72 h
Experimental: as §1, §2, §3, §4, §5, §6, §7, §8, §9, §10, §11

HCT116 cells = experiment: Cellular uptake of Cu by ICP-MS; type: cell-based, human; conditions: HCT116, 70 μM, 24 h
Experimental: We aimed to correlate the antiproliferative activity to the accumulation of Cu in HCT116 cells. Therefore, cells were treated for 24 h with complexes Cu−GGH, 1, 3, 4 and CuCl2 (70 μM), and the Cu content of the samples was determined by ICP‐MS (Table S13). […] The higher Cu contents probably lead to enhanced oxidative stress levels in cells, which consequently results in higher antiproliferative activity.
The antiproliferative activity of selected Cu(II) ATCUN complexes was investigated towards different tumor cell lines (HCT116, NCI-H460, SiHa and SW480 cells) and expressed as the IC50 values. Additionally, cellular uptake studies in HCT116 tumor cells were carried out and the amount of Cu was determined with inductively coupled plasma mass spectrometry (ICP-MS).
Table S13. […]
with 0.4% sulforhodamine B (Sigma-Aldrich) in 1% acetic acid for 30 min in the dark at room temperature and then washed with 1% acetic acid to remove unbound dye. The stain was dissolved in unbuffered Tris base (10 mM, Serva) for 30 min on a plate shaker in the dark and quantified on a BioTek EL808 microplate reader at an absorbance of 490 nm with a reference wavelength of 450 nm to determine the percentage of cell-growth inhibition by determining the absorbance of each sample relative to a negative (no inhibitor) and a no-growth control (day 0). […]

plasmid DNA pBR322 = conditions: 50 μM complex (Cu(II):peptide 1:1.25), pBR322 0.2 μg, MOPS 50 mM pH 7.4, ascH− 1 mM, 1 h, 37 °C; at least three experiments
Experimental: The influence of Gly2 and β‐Ala2 in the ATCUN motif of complexes 1–7 on the oxidative plasmid DNA cleavage activity was tested by means of gel electrophoresis. […] In Figure 3 the nuclease activity of in situ prepared 1–7, Cu−GGH and CuCl2 in the presence of ascH^− as reducing agent is shown (pH 7.4, 37 °C).
Figure 3 (Top) Nuclease activity towards plasmid DNA pBR322 (0.2 μg) of Cu(II) ATCUN complexes Cu−GGH, 1–7 (50 μM) and CuCl2 in MOPS buffer (50 mM, pH 7.4) in the presence of ascH^− (1 mM) after incubation for 1 h at 37 °C. Lane 1: DNA ladder (form I, II and III), lane 2: DNA reference, lanes 3–10 as indicated, lane 11: CuCl2. (Bottom) Visualization of the extent of DNA cleavage in percent. Error bars represent the standard deviation from at least three experiments.
A suitable concentration at which DNA forms II and III are visible, was determined to be 35 μM through a concentration‐dependent DNA cleavage experiment (S‐6.2, 0–50 μM).
All DNA cleavage experiments were
performed at least in triplicate in order to ensure reproducibility. The standard deviations
are represented as the error bars.
The in situ prepared complexes 1–7 (50 µM CuCl2 / 62.5 µM ligand, Cu(II):peptide = 1:1.25,
see S-4) and their corresponding ligands a–g (62.5 µM) were incubated with plasmid DNA […]
(form II), and linear (Form III) DNA were visualized by fluorescence imaging of […]

[5] = pH 7.4, competitivity index (CI) method; cited from earlier work
Experimental: Table 1 CI values calculated at pH 7.4 for Cu(II) complexes 1–7 of peptides a–g (1 mM Cu(II), peptides L and virtual competitive ligand Z) based on respective stability constants. […] The high stability of Cu−GGH (CI7.4=12.4)[14] and the novel Cu(II) Gly2−ATCUN complexes 1 and 2 (CI7.4 13.61 and […], Table 1) by formation of 5,5,6‐chelates is assumed to be res ...

[6] = tested on: Ehrlich ascites tumor cells; conditions: cited from earlier work
Source text: Cowan et al. reported Cu(II) ATCUN complexes with anticancer, ‐viral, and ‐microbial activity as well as for DNA cleavage and enzyme inhibition.[3, 16, 17]

NH2−Gly−Gly−His−COOH [Cu−GGH, reference compound]
residual viable cells HCT116 [1]: 66 ± 21% | residual viable cells NCI-H460 [2]: 74 ± 9% | residual viable cells SW480 [3]: 73 ± 17% | residual viable cells SiHa [4]: – (indicates no antiproliferative activity observed after treatment with the respective compound at 70 μM for 72 h) | cellular uptake (accumulated Cu content), approximate values (HCT116 cells): ~0.3 μg Cu/4×10^5 cells | extent of DNA cleavage, form II (plasmid DNA pBR322): ~90% | log K 7.4 / CI7.4 of Cu(II) complex [5]: 12.4 | antitumor effect in vivo (in words) [6]: killed Ehrlich ascites tumor cells in vivo
